pIC50: −log10 of the molar value.
Tests used:
[1] = system: HaCaT cells; test: Wound treatment (scratch) assay in HaCaT cells; format: cell-based, human; settings: 48 hours
Method: HaCaT cells subcultured for about one week in DMEM [containing+8% FBS, AA] medium were inoculated in a 6-well plate at 2×10^5 cells/mL ([…]). Then, the cells were cultured for about 24 hours until the cells reached 80% confluency. HaCaT cells are an adult human skin-derived and spontaneously […] aneuploid immortal keratinocyte cell line. After the culture, the cells were washed with 1×PBS buffer and the used medium was replaced with an FBS and antibiotic-free medium. Then, mitomycin was added thereto at a concentration of 30 μg/mL and the cells were cultured for 2 hours. Then, the cells were washed with 1×PBS buffer, and a cell monolayer on the bottom surface of each well was scratched by using a 200 μL pipette tip to harm the cells. Since some cells were washed away by the scratching, the plate was washed repeatedly with 1×PBS buffer and then, filled with DMEM medium containing FBS and AA, and photographed at the time of 0 hour.
The 15-PGDH inhibitor was then injected at a concentration of 5 μM or the indicated concentration. For comparison with the results, in the case of the negative control, nothing was added, and in the case of the positive control, TGF-β1 was injected at a concentration of 1 ng/mL and then, the cells were cultured for 48 hours. After 48 hours, the picture of the cells was taken again to confirm how much the cells were grown due to the drug effect.

[2] = molecular target: 15-PGDH (Homo sapiens (Human), UniProt P15428); test: 15-PGDH inhibitory activity (NADH at 340 nm); format: biochemical; settings: concentration inhibiting 50% of 15-PGDH activity; purified 15-PGDH, 21 μM PGE2, 0.25 mM NAD+
Method in brief: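 GST-purified human 15-PGDH (E. coli BL-21 LysS, 10 μg) with 21 μM PGE2 and 0.25 mM NAD+ in 50 mM Tris-HCl pH 7.5, 0.1 mM DTT. Compound tested at 0.0001–64 μM; NADH formation read by absorbance at 340 nm against a standard curve.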

[3] = system: A549 cells; test: Measurement of PGE2 concentration in A549 cell medium (ELISA); format: cell-based, human; settings: for Increment %: PGE2 concentration versus PBS control, 5 μM, 12 hours; for PGE2 concentration: inhibitor 5 μM, medium collected after 12 hours, ELISA
Method in brief: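 A549 cells in RPMI 1640 with 8% FBS, seeded at 5×10^5 cells/well and grown 24 h at 37° C, 5% CO2; at ~80% confluence treated with 15-PGDH inhibitor at 5 μM in PBS (PBS-only negative control). After 12 h, PGE2 in the medium was measured by ELISA against a standard curve.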

[4] = 0.5 μM to 5 μM, versus control (FIGS. 4 to 6)
[5] = 5 μM, versus control (FIGS. 1 to 3)

15-PGDH, sequence (P15428 whole entry): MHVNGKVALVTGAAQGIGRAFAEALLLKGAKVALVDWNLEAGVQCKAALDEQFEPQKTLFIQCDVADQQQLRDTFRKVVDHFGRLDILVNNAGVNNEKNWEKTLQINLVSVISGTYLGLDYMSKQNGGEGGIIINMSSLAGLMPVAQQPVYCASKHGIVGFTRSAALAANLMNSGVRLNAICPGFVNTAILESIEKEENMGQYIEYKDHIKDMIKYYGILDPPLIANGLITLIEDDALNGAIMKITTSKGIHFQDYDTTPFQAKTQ

Row | SMILES | wound closure rate [1, 4] | wound closure rate [1, 5] | pIC50 [2] | Increment % [3] | PGE2 concentration [3]
1 | O=C(CCCc1ccccc1)Oc1cccc(/C=C2\SC(=O)NC2=O)c1Cl [Compound 89, (Z)-2-chloro-3-((2,4-dioxothiazolidin-5-ylidene)methyl)phenyl 4-phenylbutanoate] | significantly high wound closure rate | significantly higher wound closure rates than the control | 7.60 | 398.2% | 1048.274 pg/mL
2 | O=C1NC(=O)/C(=C/c2ccc(OC(=O)C3CC3)c(Cl)c2)S1 [Compound 1, (Z)-2-chloro-4-((2,4-dioxothiazolidin-5-ylidene)methyl)phenyl cyclopropanecarboxylate] |  | significantly higher wound closure rates than the control | 5.68 | 3.47% | 283.2688 pg/mL
3 | CCOc1cc(/C=C2\SC(=O)NC2=O)ccc1OC(=O)CCCc1ccccc1 [Compound 59, (Z)-4-((2,4-dioxothiazolidin-5-ylidene)methyl)-2-ethoxyphenyl 4-phenylbutanoate] | significantly high wound closure rate | significantly higher wound closure rates than the control | 7.36 | 579.34% | 1081.055 pg/mL
4 | O=C(CCCc1ccccc1)Oc1ccc(/C=C2\SC(=O)NC2=O)cc1Cl [Compound 14, (Z)-2-chloro-4-((2,4-dioxothiazolidin-5-ylidene)methyl)phenyl 4-phenylbutanoate] |  | significantly higher wound closure rates than the control | 7.66 | 389.99% | 586.3975 pg/mL
5 | O=C(CCC1CCCC1)Oc1ccc(/C=C2\SC(=O)NC2=O)cc1Cl [Compound 5, (Z)-2-chloro-4-((2,4-dioxothiazolidin-5-ylidene)methyl)phenyl 3-cyclopentylpropanoate] |  |  | 7.52 | 83.07% | 501.1889 pg/mL
6 | O=C(CC1CCCCC1)Oc1ccc(/C=C2\SC(=O)NC2=O)c(Cl)c1 [Compound 97, (Z)-3-chloro-4-((2,4-dioxothiazolidin-5-ylidene)methyl)phenyl 2-cyclohexylacetate] |  |  | 7.56 | 8.1011% | 120.703 pg/mL
7 | O=C1NC(=O)/C(=C/c2ccc(OC(=O)C3CCCCC3)c(Br)c2)S1 [Compound 21, (Z)-2-bromo-4-((2,4-dioxothiazolidin-5-ylidene)methyl)phenyl cyclohexanecarboxylate] |  |  | 7.42 | 62.47% | 411.1081 pg/mL
8 | O=C(O)c1ccccc1.O=C1NC(=O)/C(=C/c2ccc(OC(=O)c3ccccc3)cc2Cl)S1 [Compound 101, (Z)-3-chloro-4-((2,4-dioxothiazolidin-5-ylidene)methyl)phenyl benzoate] |  |  | 7.35 | 79.4871% | 200.4108 pg/mL
9 | CCOc1cc(/C=C2\SC(=O)NC2=O)ccc1OC(=O)c1ccccc1.O=C(O)c1ccccc1 [Compound 56, (Z)-4-((2,4-dioxothiazolidin-5-ylidene)methyl)-2-ethoxyphenyl benzoate] |  |  | 6.53 | −31.65% | 108.7675 pg/mL
10 | O=C(Cc1ccccc1)Oc1ccc(/C=C2\SC(=O)NC2=O)cc1Cl [Compound 12, (Z)-2-chloro-4-((2,4-dioxothiazolidin-5-ylidene)methyl)phenyl 2-phenylacetate] |  |  | 7.20 | −34.89% | 77.92 pg/mL
11 | CCOc1cc(/C=C2\SC(=O)NC2=O)ccc1OC(=O)C1CCCCC1 [Compound 51, (Z)-4-((2,4-dioxothiazolidin-5-ylidene)methyl)-2-ethoxyphenyl cyclohexanecarboxylate] |  |  | 6.26 | 3.34% | 283.1296 pg/mL
12 | O=C(CCCCC1CCCCC1)Oc1ccc(/C=C2\SC(=O)NC2=O)cc1 [Compound 70, (Z)-4-((2,4-dioxothiazolidin-5-ylidene)methyl)phenyl 5-cyclohexylpentanoate] |  |  | 7.30 | 69.97% | 219.5565 pg/mL
13 | O=C(CCCc1ccccc1)Oc1ccc(/C=C2\SC(=O)NC2=O)cc1 [Compound 74, (Z)-4-((2,4-dioxothiazolidin-5-ylidene)methyl)phenyl 4-phenylbutanoate] |  |  | 7.29 | 27.71% | 164.9677 pg/mL
14 | O=C(CCc1ccccc1)Oc1ccc(/C=C2\SC(=O)NC2=O)cc1Br [Compound 28, (Z)-2-bromo-4-((2,4-dioxothiazolidin-5-ylidene)methyl)phenyl 3-phenylpropanoate] |  |  | 7.55 | 190.32% | 572.5235 pg/mL
15 | CCOc1cc(/C=C2\SC(=O)NC2=O)ccc1OC(=O)CCCC1CCCCC1 [Compound 54, (Z)-4-((2,4-dioxothiazolidin-5-ylidene)methyl)-2-ethoxyphenyl 4-cyclohexylbutanoate] |  |  | 7.62 | 202.57% | 828.9774 pg/mL
16 | O=C(CC1CCCCC1)Oc1ccc(/C=C2\SC(=O)NC2=O)cc1 [Compound 67, (Z)-4-((2,4-dioxothiazolidin-5-ylidene)methyl)phenyl 2-cyclohexylacetate] |  |  | 7.52 | 8.34% | 139.9468 pg/mL
17 | O=C(O)c1ccccc1.O=C1NC(=O)/C(=C/c2ccc(OC(=O)c3ccccc3)c(Br)c2)S1 [Compound 26, (Z)-2-bromo-4-((2,4-dioxothiazolidin-5-ylidene)methyl)phenylbenzoate] |  |  | 7.60 | −11.12% | 175.2752 pg/mL
18 | CCOc1cc(/C=C2\SC(=O)NC2=O)ccc1OC(=O)CCc1ccccc1 [Compound 58, (Z)-4-((2,4-dioxothiazolidin-5-ylidene)methyl)-2-ethoxyphenyl 3-phenylpropanoate] |  |  | 7.03 | 7.97% | 171.8161 pg/mL
